Reference: patent publication US11771709B2, “ALK protein degradation agent and anti-tumor application thereof” (ShanghaiTech University, priority 2017, dated 2023)
Read-outs that look alike come from different tables or passages of the source.

Assays:
[1] = test system: U118MG cells (FIG-ROS1 gene fusion); experiment: Growth inhibition IC50 in ROS1 mutant glioblastoma cell line U118MG (72 hours); assay type: cell-based; details: Homo sapiens, U-118-MG
[2] = target: T1, Ba/F3 (EML4-ALK/C1156Y) (Homo sapiens, UniProt Q9UM73, C1156Y, cells depend on it); experiment: Growth inhibition IC50 in Ba/F3 cells expressing EML4-ALK C1156Y; assay type: cell-based
T1 construct: Q9HC35 (Echinoderm microtubule-associated protein-like 4)
Description: (§1) Cells were seeded at specific density in 96 well plates one day before treatment. […] Viable cells were measured via CCK8 reagent and IC50s were calculated via Prism Graphad. Experiments were repeated at least three times.

[3] = target: T2, ALK protein in SR (NPM-ALK) cells (Homo sapiens, UniProt Q9UM73); experiment: Western blot of ALK protein level (degradation, DC50), ALK phosphorylation and downstream signaling in SR cells; assay type: cell-based; details: for ALK protein degradation: 16 hours, up to 500 nM; for DC50: ALK protein degradation in SR cells
T2 construct: NPM (nucleophosmin, NPM1, P06748) fusion partner; host or cells: SR (ALCL) cells; the other entry of the earlier key: NPM1 (P06748, Nucleophosmin)

[4] = test system: PC9 (EGFR, exon 19 del) cells; experiment: Growth inhibition IC50 in EGFR mutant lung adenocarcinoma PC9 cells; assay type: cell-based; details: Homo sapiens
Description: (§2) SR (NPM-ALK) and NCI-H2228 (EML4-ALK, V3) cells were purchased from ATCC. […] All Cells were cultured in RPMI1640 medium with 10% FBS and Penicillin-Streptomycin in 37° C. incubator with 5% CO2.
as §1

[5] = test system: SR (NPM-ALK) cells; experiment: Growth inhibition IC50 in ALCL SR cells (CCK8/WST, 72 hours); assay type: cell-based; details: SR cells, WST, Brigatinib-based PROTAD molecules (Table 3)
Description: as §2, §1

[6] = test system: PC9Brc1 (EGFR, exon 19 del+T790M) cells; experiment: Growth inhibition IC50 in EGFR mutant lung cancer PC9Brc1 cells; assay type: cell-based; details: CTB, n ≥ 3, read-out: Half Inhibitory Concentration (IC50) Mean
Description: as §2, §1

[7] = test system: SW48 cell line (EGFR G719S); experiment: Growth inhibition IC50 in EGFR G719S colorectal cancer cell line SW48; assay type: cell-based; details: Homo sapiens, CTG, n = 2, read-out: Half Inhibitory Concentration (IC50) Mean
Description: as §1

[8] = test system: MOLM13 cells (FLT3-ITD); experiment: Growth inhibition IC50 in FLT3-ITD AML cell line MOLM13; assay type: cell-based; details: Homo sapiens
Description: as §1

[9] = target: T3, Ba/F3 (EML4-ALK/L1196M) (Homo sapiens, UniProt Q9UM73, L1196M, cells depend on it); experiment: Growth inhibition IC50 in Ba/F3 cells expressing EML4-ALK L1196M; assay type: cell-based
T3 construct: Q9HC35 (Echinoderm microtubule-associated protein-like 4)
Description: as §1

[10] = test system: ALK positive non-small cell lung cancer; details: patients; cited from earlier work
[11] = test system: NCI-H2228 (EML4-ALK, V3) cells; experiment: Growth inhibition IC50 in lung adenocarcinoma H2228 cells (WST); assay type: cell-based; details: Homo sapiens, WST (Table 3)
Text: Experiments were repeated at least three times.
Besides above, we also tested the dosage-dependent effects on the growth inhibition in H2228 cells. […] (Table 3).

[12] = target: T4, Ba/F3 (EML4-ALK/WT) (Homo sapiens, UniProt Q9UM73); experiment: Growth inhibition IC50 in Ba/F3 cells expressing EML4-ALK wild type; assay type: cell-based
T4 construct: Q9HC35 (Echinoderm microtubule-associated protein-like 4)
Description: as §1

[13] = Pharmacokinetics (PK) study in SD rat (IV, IP, PO; LC-MS/MS); assay type: in vivo; details: Sprague-Dawley, serum; for clearance: read-out: clearance rate, mean value
Description: SD rat were used to study the PK of ALK PROTAD compounds. ALK PROTAD compounds SIAIS164008, SIAIS164018, SIAIS164023 and SIAIS151118 were administrated into SD rat via three different routes: IV (Intravenous Injection), IP (Intraperitoneal Injection) and PO ([…]). Blood samples at different sampling time points up to 24 hours post dosing were collected from each animal and analyzed with LC-MS/MS to calculate the PK for each chemical.

[14] = target: T5, ALK protein in H3122 (EML4-ALK) cells (Homo sapiens, UniProt Q9UM73); experiment: Western blot of ALK protein level (degradation, DC50), ALK phosphorylation and downstream signaling in H3122 cells; assay type: cell-based; details: ALK protein degradation in H3122 cells
T5 construct: EML4 (Echinoderm microtubule-associated protein-like 4, Q9HC35) fusion partner, variant 1; host or cells: NCI-H3122 lung adenocarcinoma cells; the other entry of the earlier key: EML4 (Q9HC35, Echinoderm microtubule-associated protein-like 4)

[15] = test system: ALK protein in H2228 (EML4-ALK) cells; experiment: Western blot of ALK protein level, ALK phosphorylation and downstream signaling in H2228 cells; assay type: cell-based
Description: Cancer cells were seeded in 1 ml RPMI1640 medium in 24-well plate at the density of 3×10^5 or 1.5×10^5 cells/ml. The next day cells were treated with different concentration of drugs for 16 hours. Then cells were washed twice with PBS and lyzed in RIPA lysis buffer with Halt Proteinase and Phosphotase inhibitor. Equal amount of proteins were loaded to run SDS-PAGE gels after denature. The gels were blotted to PVDF membrane. After incubating with first and secondary antibodies, the images were developed using SuperSignal West Pico Chemiluminescent Substrate.
The effect of Brigtinib based PROTAD molecules on the ALK protein total level were studied by western blot in ALCL SR (NPM-ALK) cell line and lung adenocarcinoma cell line H2228 and H3122 (EML4-ALK).
The effects of compounds SIAIS164008 and SIAIS164018 of the present invention on the activation of ALK mediated signaling pathways were also studied in SR cells and H2228 cells. […] The overall effect of compound of SIAIS164018 was better than that of SIAIS164008.

[16] = target: T6, ALK protein in SR cells (Homo sapiens, UniProt Q9UM73); experiment: Block of ALK degradation by proteosome inhibitors MG132 and MLN4924 in SR cells; assay type: cell-based
T6 construct: NPM (nucleophosmin, NPM1, P06748) fusion partner; host or cells: SR (ALCL) cells; the other entry of the earlier key: NPM1 (P06748, Nucleophosmin)
Text: To further validate the degradation effect act through proteosome mediated pathway, we also treated cells with two different proteosome inhibitors MG132 and MLN4924 to block protein degradation (FIG. 16).

[17] = U118MG cells, 72 hours, n = 2, reagent CTG, read-out: Half Inhibitory Concentration (IC50) Mean
[18] = IP, 2 mg/kg, read-out: serum half-life (converted)
[19] = IP, 2 mg/kg, read-out: time to maximal serum peak level (Tmax)
[20] = IV, single dose 2 mg/kg, read-out: serum clearance half-life (converted)
[21] = PO, 10 mg/kg, read-out: serum half-life (converted)
[22] = MOLM-13, MOLM13 cells, n = 2, reagent CTG, read-out: Half Inhibitory Concentration (IC50) Mean
[23] = PC-9, PC9 cells, CTB, n ≥ 3, read-out: Half Inhibitory Concentration (IC50) Mean

Structure (SMILES): COc1cc(N2CCC(N3CCN(C)CC3)CC2)ccc1Nc1ncc(Cl)c(Nc2ccccc2P(C)(C)=O)n1 [Brigatinib, reference compound]
- IC50 ([1]; 72 h): ~6800 nM
- IC50 ([1]; 72 h, read-out: Half Inhibitory Concentration (IC50) Mean): 6800 nM
- GI50 [2]: 36.8 nM
- ALK protein levels, time- and dose-dependence ([3]; SR cells, 30 nM to 300 uM, 4-24 hours): did not affect ALK protein levels
- ALK protein degradation ([3]; SR cells, western blot): did not degrade ALK proteins
- IC50 ([4]; PC-9, read-out: Half Inhibitory Concentration (IC50) Mean): 102 nM
- IC50 ([5]; 72 hours): 2.8 nM
- IC50 [6]: 246 nM
- IC50 [7]: 2720 nM
- IC50 ([8]; MOLM-13): ~152 nM
- IC50 ([8]; MOLM-13, read-out: Half Inhibitory Concentration (IC50) Mean): 152 nM
- GI50 [9]: 35.9 nM
- disease control rate [10]: about 86%
- response rate [10]: 55%
- IC50 [11]: 45.2 nM

Structure (SMILES): COc1cc(N2CCC(NC(=O)CCCNc3cccc4c3C(=O)N(C3CCC(=O)NC3=O)C4=O)CC2)ccc1Nc1ncc(Cl)c(Nc2ccccc2P(C)(C)=O)n1 (centres unmarked) [SIAIS151118, N-(1-(4-((5-chloro-4-((2-(dimethylphosphoryl)phenyl)amino)pyrimidin-2-yl)amino)-3-methoxyphenyl)piperidin-4-yl)-4-((2-(2,6-dioxopiperidin-3-yl)-1,3-dioxoisoindolin-4-yl)amino)butanamide]
- IC50 [1, 17]: 4260 nM
- GI50 [2]: 129 nM
- DC50 [3]: 1 to 10 nM
- IC50 ([5]; 72 h): 0.9 ± 0.2 nM
- IC50 [7]: 1920 nM
- GI50 [12]: 92 nM
- bioavailability ([13]; IP, 2 mg/kg): 225%
- half-life [13, 18]: 3.27 h
- Tmax [13, 19]: ~1.67 h
- clearance ([13]; IV, single dose 2 mg/kg): ~6.35 mL/min/kg
- half-life [13, 20]: ~4.73 h
- bioavailability ([13]; PO, 10 mg/kg): 36%
- Tmax ([13]; PO, 10 mg/kg, read-out: Tmax): 3.33 h
- half-life [13, 21]: 4.66 h
- IC50 [8, 22]: 101 nM
- IC50 ([8]; MOLM-13, MOLM13 cells, read-out: IC50): 101 nM
- DC50 [14]: 1 to 50 nM
- GI50 [9]: 146 nM
- IC50 [11]: 346 nM

Structure (SMILES): COc1cc(N2CCC(N3CCN(C(=O)CCOCCOCCNc4cccc5c4C(=O)N(C4CCC(=O)NC4=O)C5=O)CC3)CC2)ccc1Nc1ncc(Cl)c(Nc2ccccc2P(C)(C)=O)n1 (centres unmarked) [SIAIS164008, 4-((2-(2-(3-(4-(1-(4-((5-chloro-4-((2-(dimethylphosphoryl)phenyl)amino)pyrimidin-2-yl)amino)-3-methoxyphenyl)piperidin-4-yl)piperazin-1-yl)-3-oxopropoxy)ethoxy)ethyl)amino)-2-(2,6-dioxopiperidin-3-yl)isoindoline-1,3-dione]
- IC50 [1, 17]: 3520 nM
- IC50 ([1]; U118MG cells, 72 hours, read-out: IC50): ~3520 nM
- GI50 [2]: 243 nM
- DC50 [3]: 1 to 10 nM
- concentration inhibiting the phosphorylation of ALK proteins ([3]; SR cells, western blot): 0.1 nM
- downstream signaling pathway (PI3K/AKT, MEK/ERK and STAT3) ([3]; SR cells, western blot): significantly inhibited
- ALK protein degradation ([3]; SR cells, western blot): effectively degrade ALK proteins at nano mole concentration
- IC50 [4, 23]: 265 nM
- IC50 ([5]; 72 h): 3.6 ± 2.1 nM
- IC50 [6]: 1830 nM
- IC50 [7]: 15200 nM
- GI50 [12]: 115 nM
- bioavailability ([13]; IP, 2 mg/kg): 93%
- half-life [13, 18]: 1.54 h
- Tmax [13, 19]: ~0.42 h
- clearance ([13]; IV, single dose 2 mg/kg): ~414 mL/min/kg
- half-life [13, 20]: ~0.85 h
- bioavailability ([13]; PO, 10 mg/kg): 14.9%
- Tmax ([13]; PO, 10 mg/kg, read-out: Tmax): 2.75 h
- half-life [13, 21]: 3.98 h
- IC50 [8, 22]: 392 nM
- phosphorylation of ALK protein and activation of PI3K/AKT pathway [15]: inhibited
- DC50 [14]: 10 to 50 nM
- GI50 [9]: 376 nM
- IC50 [11]: 74 nM

Structure (SMILES): COc1cc(N2CCC(N3CCN(C(=O)CCCCCCNc4cccc5c4C(=O)N(C4CCC(=O)NC4=O)C5=O)CC3)CC2)ccc1Nc1ncc(Cl)c(Nc2ccccc2P(C)(C)=O)n1 (centres unmarked) [SIAIS164023, 4-((7-(4-(1-(4-((5-chloro-4-((2-(dimethylphosphoryl)phenyl)amino)pyrimidin-2-yl)amino)-3-methoxyphenyl)piperidin-4-yl)piperazin-1-yl)-7-oxoheptyl)amino)-2-(2,6-dioxopiperidin-3-yl)isoindoline-1,3-dione]
- GI50 [2]: 47.5 nM
- DC50 [3]: 0.5 to 10 nM
- IC50 [4, 23]: 379 nM
- IC50 ([5]; 72 h): 4.8 ± 2.7 nM
- IC50 [6]: 870 nM
- GI50 [12]: 33.6 nM
- bioavailability ([13]; IP, 2 mg/kg): 122%
- half-life [13, 18]: 1.62 h
- Tmax [13, 19]: ~2 h
- clearance ([13]; IV, single dose 2 mg/kg): ~88.2 mL/min/kg
- half-life [13, 20]: ~7.71 h
- bioavailability ([13]; PO, 10 mg/kg): 34.4%
- Tmax ([13]; PO, 10 mg/kg, read-out: Tmax): 3.33 h
- half-life [13, 21]: 2.13 h
- DC50 [14]: 1 to 10 nM
- GI50 [9]: 75.8 nM
- IC50 [11]: 15.5 nM

Structure (SMILES): COc1cc(N2CCC(N3CCN(C(=O)CNc4cccc5c4C(=O)N(C4CCC(=O)N(C)C4=O)C5=O)CC3)CC2)ccc1Nc1ncc(Cl)c(Nc2ccccc2P(C)(C)=O)n1 (centres unmarked) [SIAIS1210003, 4-((2-(4-(1-(4-((5-chloro-4-((2-(dimethylphosphoryl)phenyl)amino)pyrimidin-2-yl)amino)-3-methoxyphenyl)piperidin-4-yl)piperazin-1-yl)-2-oxoethyl)amino)-2-(1-methyl-2,6-dioxopiperidin-3-yl)isoindoline-1,3-dione]
- reduction of ALK protein level and its block by MG132 and MLN4924 [16]: no such effect
